Non-standard residues stand in square brackets, D forms with d. Primed or numbered codes have the meaning given here. No end group written: not given here. *: point of attachment. Ida = iminodiacetic acid linker, its two carboxyls bind the Lys side-chain amines of two peptides, giving a homodimer; Ida(3) = iminodiacetic acid linker, Lys side-chain amines bound to its two carboxyl groups; Ida(4) = iminodiacetic acid linker (dimerization linker bound to lysine side chain); Ida″ = iminodiacetic acid linker bound to the Lys side-chain amine, forming a dimer; Biotin = O=C1N[C@H]2[C@H](CS[C@H]2CCCCC(=O)*)N1; Cha = N[C@@H](CC1CCCCC1)C(=O)O; Ahx = NCCCCCC(=O)O
Test system: HUVECs
Assay type: cell-based
Conditions: HUVEC proliferation, bFGF at 10 ng/ml or VEGF at 5 ng/ml, 48 hours, BrdU incorporation; read-out: IC50 on HUVECs
Summary of the method: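 Proliferation read-out: BrdU incorporation after 48-hour culture (37 ° C, 5% CO2) with graded peptide doses. Cells were in EBM with 2% FCS at 5,000 per well, driven by VEGF (5 ng/ml) or bFGF (10 ng/ml), added after ≥12-hour attachment.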

336 (Ac-ARRRRQRVAIYFK-NH2; not fully specified (residue 13); also: homodimer via Lys13 side chain, Ida-PEG 20 kDa linker) [compound 336]
IC50: < 10 µM

499 (Ac-PRYRRQAVAIYFK(Ida″); not fully specified (C-terminus); also: homodimer via Ida linker on Lys13 side chain) [compound 499]
IC50: < 10 µM

59 ([Ahx]RTRRRRRRQRVRIAYEEIFVRNM; also: homodimer of residues 1-24 via Ida linker on Ahx amino group) [compound 59]
IC50: > 30 µM

361 (Ac-ARRRRQRVAIYFK; not fully specified) [compound 361]
IC50: > 30 µM

429 (Ac-ARRRRQAVAIK(Ida(4))FI; also: homodimer via Ida linker at K11) [compound 429]
IC50: < 10 µM

KTKRKRKKQRVKAIFVQNM [compound 111]
IC50: 10 to 30 µM

237 (Ac-RHRRHQRVRIIF; also: dimer via C-terminal Phe to Lys linker) [compound 237]
IC50: < 10 µM

465 (Ac-ARRQRQAVAIYFK(Ida(3)); not fully specified (C-terminus); also: homodimer via Ida linker on Lys13 side chain) [compound 465]
IC50: < 10 µM

RKRKKQRVKIIF [compound 82]
IC50: > 30 µM

508 (Ac-CNGRCGGARRRRQRVAIYFK; not fully specified (C-terminus); cysteine pairing not given here; also: homodimer via Ida linker at Lys20 side chain) [compound 508]
IC50: < 10 µM

392 (Ac-ARRRRQAVPIYFK; not fully specified (residue 13, C-terminus); also: homodimer of residues 1-13 via Ida linker at Lys13 side chain) [compound 392]
IC50: > 30 µM

KTKRKRKKQRVKIAYEEIFVQ [compound 26]
IC50: < 10 µM

135 (KRKRKKQRVKI[Ahx][Ahx]IF; also: dimer: C-terminus of Phe15 of each chain bound to one amino group of a Lysine linker) [compound 135]
IC50: < 10 µM

KKSSKRAKTQRRRKSFVKMYENIH [compound 8]
IC50: > 30 µM

277 (XRRRRQRVHIYFK; not fully specified; Xaa = Acylated Histidine; The side chain of Lysine at position 13 is covalently bound to an Ida linker forming a homodimer of residues 1 through 13.) [compound 277]
IC50: < 10 µM

248 (Ac-RRRRRQHVHIIF; also: homodimer: C-termini of two chains bound to the two amines of a Lys linker) [compound 248]
IC50: < 10 µM

399 (Ac-ARRRRQAVRIYFK; not fully specified (residue 13, C-terminus); also: homotrimer via ATA linker at Lys13 side chain) [compound 399]
IC50: < 10 µM

344 (Ac-ARRRRQRVAIY[Cha]K-NH2; not fully specified (residue 13); also: homodimer: Lys13 side chains joined by Ida (iminodiacetic acid) linker) [compound 344]
IC50: < 10 µM

416 (Ac-ARRRRQAVRIKF; not fully specified (residue 11); also: homodimer via Ida linker on Lys side chains, linker at 11 via Ida, other end not in the chain) [compound 416]
IC50: < 10 µM

KRKKQQRVKIAYEEIFV [compound 77]
IC50: > 30 µM

KTKRKRKKQRVKIAYEQNM [compound 40]
IC50: > 30 µM

259 (Ac-ARRRR[dQ]RVAIIFK-NH2; not fully specified (residue 13); also: homodimer via Ida linker on Lys13 side chains) [compound 259]
IC50: < 10 µM

236 (Ac-RHRHRQRVRIIF; also: dimer via C-terminal Phe to Lys linker) [compound 236]
IC50: < 10 µM

KAARKRKKQRVKIAYEEIFVQNM [compound 56]
IC50: 10 to 30 µM

TKRKRKKQRVKIAYEEIF [compound 65]
IC50: > 30 µM

260 (Ac-ARRR[dR]QRVAIIFK-NH2; not fully specified (residue 13); also: homodimer via Ida linker on Lys13 side chains) [compound 260]
IC50: < 10 µM

333 (Ac-RHHRRQHVRIYFK; not fully specified (residue 13, C-terminus); also: homodimer via Ida linker on Lys13 side chain) [compound 333]
IC50: < 10 µM

KRKKQRVKIIF [compound 83]
IC50: > 30 µM

KTKRKRIKQRVKRAYEEIF [compound 137]
IC50: > 30 µM

440 (Ac-RRRRSQAVAIYFK(Ida(4)); not fully specified (C-terminus); also: homodimer via Ida linker at K13) [compound 440]
IC50: < 10 µM

KTKAARKKQRVKIAYEEIFVQNM [compound 55]
IC50: > 30 µM

314 (Ac-RARRRQAVAIPFK(Ida)-NH2; also: homodimer via Ida linker on Lys13 side chain) [compound 314]
IC50: > 30 µM

1 ([Ahx]RTRRRRRRQRVRIAYEEIFVRNM) [compound 1]
IC50: < 10 µM

KRKKQRVKIAYEEIFVKNM [compound 10]
IC50: 10 to 30 µM

232 (XRRRHQRVRIIF; Xaa = Acylated Histidine; Dimeric peptide wherein the C terminus of Phe in position 12 of one peptide chain is covalently bound to one of the amino groups of a Lysine linker and Phe of the remaining peptide chain is covalently bound to the other amino group of the Lysine linker.) [compound 232]
IC50: < 10 µM

234 (XRRRRQRVHIIF; Xaa = Acylated Histidine; Dimeric peptide wherein the C terminus of Phe in position 12 of one peptide chain is covalently bound to one of the amino groups of a Lysine linker and Phe of the remaining peptide chain is covalently bound to the other amino group of the Lysine linker.) [compound 234]
IC50: < 10 µM

463 (Ac-ARRARQAVAIYFK(Ida(3)); not fully specified (C-terminus); also: homodimer via Ida linker on Lys side chains, linker at 13 via Ida, other end not in the chain) [compound 463]
IC50: < 10 µM

469 (Ac-ARRRRQRVAIYFKARRRRQRVAIYFK; not fully specified) [compound 469]
IC50: < 10 µM

341 (Ac-RRHRHQRVHIYFK(Ida(3))-NH2; also: homodimer via Lys13 side chain, Ida linker (Ida amino group Boc)) [compound 341]
IC50: < 10 µM

166 (Biotin-TKRKRKKQRVKIIFV; also: Thr1 biotinylated) [compound 166]
IC50: 10 to 30 µM

ATKRKRKKQRVKIIFVQNM [compound 123]
IC50: < 10 µM

From patent US20070203066A1, “Compositions and methods for inhibiting cellular proliferation” (priority 2005, published 2007)
